{
  "source": "patent US20100173914A1",
  "about": "“PHARMACEUTICALS, COMPOSITIONS AND METHODS OF MAKING AND USING THE SAME” (priority 2007, published 2010)",
  "key": {"[1]": {"details": "cited from earlier work"}, "[2]": {"details": "cited from earlier work", "remark": "listed apart in the source"}, "[3]": {"target": "T1, human adenosine A2A receptors (Homo sapiens, UniProt P29274)", "T1 construct": "host or cells: HEK-293", "T1 sequence (P29274 whole entry)": "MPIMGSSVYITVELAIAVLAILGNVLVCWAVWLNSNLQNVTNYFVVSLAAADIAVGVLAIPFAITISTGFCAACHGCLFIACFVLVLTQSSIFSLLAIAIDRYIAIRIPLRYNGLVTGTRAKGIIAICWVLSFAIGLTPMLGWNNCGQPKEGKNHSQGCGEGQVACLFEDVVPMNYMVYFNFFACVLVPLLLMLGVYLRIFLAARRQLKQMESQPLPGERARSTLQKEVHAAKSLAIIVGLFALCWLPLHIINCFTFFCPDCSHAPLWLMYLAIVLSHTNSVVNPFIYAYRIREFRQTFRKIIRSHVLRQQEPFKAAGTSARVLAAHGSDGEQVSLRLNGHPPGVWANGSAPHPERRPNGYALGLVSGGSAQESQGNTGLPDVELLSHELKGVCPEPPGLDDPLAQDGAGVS", "test": "Adenosine receptor binding: binding affinities at hA2A receptors ([3H]CGS-21680 displacement)", "source_text": "Adenosine Receptor Binding: Binding Affinities at hA2A Receptors\nThe compounds were examined in an assay measuring in vitro binding to human adenosine A2A receptors by determining the displacement of the adenosine A2A receptor selective radioligand 4-[2-[[6-Amino-9-(N-ethyl-β-D-ribofuranuronamidosyl)-9H-purin-2-yl]amino]ethyl]benzenepropanoic acid hydrochloride ([^3H]CGS-21680) using standard techniques. See, for example, Jarvis et al., J Pharmacol Exp Ther., 251(3):888-93, which is incorporated by reference in its entirety.\nFrozen HEK-293 cells were homogenized in 65 mL of 50 mM Tris HCl buffer (pH 7.5) containing 10 mM MgCl2, and 0.1 IU/mL adenosine deaminase per pellet using a Ultra-Turrax homogenizer. The resultant homogenate was kept for immediate use in the binding assay.\n(§1) Binding assays were performed in a total volume of 250 μL, containing [^3H]-CGS21680 (20.0 nM), membranes and additional drugs. Total binding was determined using drug dilution buffer (50 mM Tris-HCl pH 7.5, 10 mM MgCl2, 5% DMSO). Non-specific binding was determined using 300 μM CHA. Following incubation for 90 minutes at 21° C., assays were terminated by rapid filtration with GF/B filters (presoaked in 0.1% (w/v) polyethylenimine) using a Canberra Packard filtermate 196, washed 3 times with ice-cold Tris-HCl (pH 7.4). Filters were left to dry overnight, and Microscint-0 scintillation fluid was then added to the filters. The filters were then left for at least 2 hours before the radioactivity was assessed using a Canberra Packard TopCount microplate scintillation counter.\nTo determine the free ligand concentration, three vials were counted with 25 μL of [^3H]CGS21680 containing 4 mL of Ultima-Gold MV scintillant on a Beckman LS6500 multi-purpose scintillation counter.\n(§2) Data was analysed using a 4 parameter logistical equation and non-linear regression which yields affinity constants (pIC50), and slope parameters:\nwhere E is the quantity of binding and [A] is the competitor concentration. The Ki is then determined using the Cheng-Prusoff equation: […]"}, "[4]": {"target": "T2, human adenosine A1 receptors (Homo sapiens, UniProt P30542)", "T2 construct": "expressed in transfected cells; host or cells: CHO-K1", "T2 sequence (P30542 1-326)": "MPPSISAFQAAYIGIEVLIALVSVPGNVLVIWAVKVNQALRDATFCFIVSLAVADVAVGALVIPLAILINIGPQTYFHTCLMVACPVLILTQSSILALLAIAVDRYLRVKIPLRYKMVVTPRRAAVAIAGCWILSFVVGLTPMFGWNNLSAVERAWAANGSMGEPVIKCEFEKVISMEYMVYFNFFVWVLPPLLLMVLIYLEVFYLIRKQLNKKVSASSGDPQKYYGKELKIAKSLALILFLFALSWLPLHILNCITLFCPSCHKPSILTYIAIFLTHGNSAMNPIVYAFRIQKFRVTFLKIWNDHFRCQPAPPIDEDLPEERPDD", "test": "Adenosine receptor binding: binding affinities at hA1 receptors ([3H]DPCPX displacement)", "details": "displacement of [3H]DPCPX, membranes of CHO-K1 cells transfected with human A1", "source_text": "Adenosine Receptor Binding: Binding Affinities at hA1 Receptors\nThe compounds were examined in an assay measuring in vitro binding to human adenosine A1 receptors by determining the displacement of the adenosine A1 receptor selective radioligand 8-Cyclopentyl-1,3-dipropylxanthine ([^3H]DPCPX) using standard techniques. See, for example, Lohse M J, et al., (1987), 8-Cyclopentyl-1,3-dipropylxanthine (DPCPX)—a selective high affinity antagonist radioligand for A1 adenosine receptors. Naunyn Schmiedebergs Arch Pharmacol., 336(2):204-10, which is incorporated by reference in its entirety.\nas §1, with “Frozen CHO-K1 cells (transfected with a human adenosine A1 recepter expression vector) were homogenized in 130 mL of 50 mM Tris HCl buffer (pH 7.5) containing 10 mM MgCl2, and 0.1 IU/mL adenosine deaminase per pellet using a Ultra-Turrax homogeniser. The resultant homogenate was kept for immediate use in the binding. Binding” for “Binding”, “[^3H]-DPCPX (3.0” for “[^3H]-CGS21680 (20.0”, “pH:7.5,” for “pH 7.5,”, “N6-cyclohexyladenosine (CHA).” for “CHA.”\nTo determine the free ligand concentration, three vials were counted with 25 μL of [^3H]DPCPX containing 4 mL of Ultima-Gold MV scintillant on a Beckman LS6500 multi-purpose scintillation counter.\nas §2\nwhere E is the quantity of binding and [A] is the competitor concentration. The K, is then determined using the Cheng-Prusoff equation: […]"}},
  "note": "pKi: −log10 of the molar value.",
  "data": [
    {"smiles": "CCCn1c(=O)c2c(nc(/C=C/c3ccc(OC)c(OC)c3)n2C)n(CCC)c1=O", "note": "[KF 17837, E-8-(3,4-dimethoxystyryl)-1,3-dipropyl-7-methylxanthine]", "values": [
      {"measurement": "anticataleptic effects of a subthreshold dose of L-DOPA plus benserazide", "setting": "[1]; in vivo", "result": "potentiated"},
      {"measurement": "catalepsy induced by haloperidol and reserpine", "setting": "[1]; in vivo", "result": "reduced"},
      {"measurement": "cataleptic responses induced by intracerebroventricular CGS 21680", "setting": "[1]; oral administration", "result": "significantly ameliorated"}
    ]},
    {"smiles": "Cn1c(=O)c2[nH]cnc2n(C)c1=O", "note": "[Theophylline, 1,3-dimethylxanthine]", "values": [
      {"measurement": "serum theophylline levels", "setting": "[2]; 150 mg/day slow release oral, after one week, Parkinsonian patients", "result": 4.44, "unit": "mg/L"},
      {"measurement": "mean objective disability scores", "setting": "[2]; 15 Parkinsonian patients, up to 12 weeks, 150 mg/day", "result": "significant improvements"},
      {"measurement": "patients reporting moderate or marked subjective improvement", "setting": "[2]; of 15 Parkinsonian patients, up to 12 weeks, 150 mg/day", "result": 11}
    ]},
    {"smiles": "COc1ccccc1-c1nc(N)nc2c1nnn2Cc1ccc(NS(=O)(=O)O)c(C)c1", "note": "[4-[(5-amino-7-(2-methoxyphenyl)-3H-[1,2,3]triazolo[4,5-d]pyrimidin-3-yl)methyl]-2-methylphenylsulfamic acid]", "values": [
      {"measurement": "pKi", "setting": "[3]; displacement of [3H]CGS-21680, HEK-293 cell membranes", "result": "5.00 to 6.00"},
      {"measurement": "A2A/A1 selectivity ratio (Ki A2A/Ki A1)", "setting": "[3]; ratio of measured Ki values at hA2A and hA1", "result": "E (less than 5)"},
      {"measurement": "pKi", "setting": "[4]", "result": "< 5.00"}
    ]}
  ]
}
